System: DNA repair protein genes
Assay: DNA chip mRNA expression in yeast, DNA repair protein genes (Table 3)
Format: cell-based, Saccharomyces cerevisiae S288C
Conditions: incubated two hours, concentrations as in the 1st table
Method in brief: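 First, S288C yeast grown in YPD at 25° C. are dosed in log phase with one toxicant (growth-inhibiting, not lethal) for 2 h. Next, total RNA is extracted and poly(A) mRNA isolated and reverse-transcribed with Cy3/Cy5-dUTP. Finally, whole-genome chip fluorescence is read relative to unexposed cells.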

Measured: The level of expressed mRNA in the presence of chemical substance/The level of expressed mRNA in the absence of chemical substance

Na2As [(1)]
1.4: yeast gene YDL200C | yeast gene YGL249W
0.9: yeast gene YBL019W | yeast gene YEL037C | yeast gene YGL163C | yeast gene YHR164C | yeast gene YIL036W | yeast gene YIL143C | yeast gene YNL250W | yeast gene YNL312W | yeast gene YPL194W
2.0: yeast gene YGL091C
1.0: yeast gene YER162C | yeast gene YGL127C | yeast gene YGR231C | yeast gene YJR046W | yeast gene YNL261W | yeast gene YOR386W
1.1: yeast gene YDR369C | yeast gene YEL019C | yeast gene YGL058W | yeast gene YJR052W | yeast gene YLR233C | yeast gene YMR072W | yeast gene YMR284W | yeast gene YOL043C | yeast gene YPL164C | yeast gene YPR025C
1.3: yeast gene YDR054C
1.9: yeast gene YML058W
2.6: yeast gene YDL059C
0.8: yeast gene YBR272C | yeast gene YCR014C | yeast gene YDL017W | yeast gene YIL072W | yeast gene YIL153W | yeast gene YIR002C | yeast gene YKL145W | yeast gene YLR103C | yeast gene YML032C
2.5: yeast gene YJL026W
1.2: yeast gene YAL015C | yeast gene YLR288C | yeast gene YMR035W | yeast gene YOR005C
3.4: yeast gene YFL014W
1.7: yeast gene YMR096W | yeast gene YNL213C
3.1: yeast gene YGR180C
0.7: yeast gene YAR007C | yeast gene YBR073W | yeast gene YGR258C | yeast gene YPL022W
